Data as given in PubChem BioAssay (NCI).
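Method: 48-hour compound exposure of cells in 96-well plates, five concentrations, linear interpolation of endpoints. At the GI50, growth is halved. TGI marks complete inhibition of growth.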

How the values were obtained:
Assay in all cases: growth of human tumour cells (NCI), 48 h
[1] = system: HOP-92 NSCLC
[2] = system: SF-295 CNS
[3] = system: NCI-H522 lung
[4] = system: UACC-257 melanoma
[5] = system: HCC-2998 colon
[6] = system: SW-620 colon
[7] = system: NCI-H226 lung
[8] = system: CCRF-CEM leukemia
[9] = system: COLO 205 colon
[10] = system: M14 melanoma

SMILES	GI50 [1] [µM]	TGI [1] [µM]	GI50 [2] [µM]	TGI [2] [µM]	GI50 [3] [µM]	TGI [3] [µM]	GI50 [4] [µM]	TGI [4] [µM]	GI50 [5] [µM]	TGI [5] [µM]	GI50 [6] [µM]	TGI [6] [µM]	GI50 [7] [µM]	TGI [7] [µM]	GI50 [8] [µM]	TGI [8] [µM]	GI50 [9] [µM]	TGI [9] [µM]	GI50 [10] [µM]	TGI [10] [µM]
COC(=O)/C=C/C=C(c1ccccc1)c1ccccc1	3.52	38.8	2.76	8.12	5.88	78.1	8.82	> 100	28.8	> 100	3.03	> 100	14.3	> 100	6.48	> 100	3.57	13.9	3.36	17.5
CNC(=O)n1ccc2cc(Oc3ccnc(NC(=O)c4ccc(C5CCN(CCO)CC5)cc4)c3)c(OCCOC)cc21	3.48	20.6	8.54	21	3.09	11	2.24	5.73	8.57	21.3	6.3	18.9	12.1	31.3	2.8	> 100	2.83	8.6	1.98	4.24
CCCCCCCCCc1cc(=O)c2ccc(OCc3ccccc3)cc2o1	–	> 100	–	> 100	–	> 100	–	> 100	–	> 100	–	> 100	–	> 100	–	> 100	–	> 100	–	> 100
COc1ccccc1NC(=O)C1=C(C)NC(C)=C(C(=O)Nc2ccccc2OC)C1c1ccccc1F	–	> 100	–	> 100	–	–	–	> 100	–	> 100	–	> 100	–	> 100	–	> 100	–	> 100	–	> 100
CNC(=O)OCc1nc(SC2CCCCO2)n(C)c1COC(=O)NC (stereo not drawn)	–	> 100	–	> 100	–	> 100	–	> 100	–	> 100	–	> 100	–	> 100	–	> 100	–	> 100	–	> 100
COc1cc(Cl)cc(-c2nn(C(=O)NCCN3CCOCC3)cc2-c2ccncc2)c1	4.35	84.6	2.75	13.5	3.38	> 100	18.4	> 100	7.77	39.7	4.28	32.7	7.2	48.9	5.91	> 100	3.16	11.2	5.42	39.5
CC(C)(C)C#CC1=C(Br)C(=O)OC1	2.82	9.2	6.9	18.2	7.7	22.5	0.886	4.39	1.59	3.12	–	> 24.9	23	68.1	2.45	> 27.7	31.6	> 100	3.61	27
